Measured values: patent US7566550B2, “Screening method for developing drugs against pathogenic microbes having two-component system” (priority 2002, dated 2009)
Where “and” joins values, the source holds several entries; their conditions need not be identical. Equal values may be shown once. Entries after “also recorded” stand apart in the source; their conditions may differ.

Tests used:
DevS201 [1] = target: T1, DevS201 (Mycobacterium tuberculosis, UniProt P9WGK3); assay: High-throughput (96-well filter retention) autophosphorylation of sensor kinase DevS201 with [γ32P]ATP; type: biochemical, M. tuberculosis; details: for IC50: high-throughput format, concentration course 2.5 mM to 1 μM, read-out: concentration required to cause 50% inhibition (IC50) of the autophosphorylation of DevS201
T1 sequence (P9WGK3 378-578 limits assumed): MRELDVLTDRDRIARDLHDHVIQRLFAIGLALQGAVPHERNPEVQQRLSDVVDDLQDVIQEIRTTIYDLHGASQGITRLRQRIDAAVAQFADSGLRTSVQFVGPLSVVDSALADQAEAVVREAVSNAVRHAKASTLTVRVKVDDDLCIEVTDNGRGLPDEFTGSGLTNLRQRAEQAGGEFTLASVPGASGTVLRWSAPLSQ

Rv2027194 [2] = target: T2, Rv2027194 (Mycobacterium tuberculosis, UniProt P9WGK1); assay: High-throughput (96-well filter retention) autophosphorylation of sensor kinase Rv2027194 with [γ32P]ATP; type: biochemical, M. tuberculosis; details: high-throughput format, concentration course 2.5 mM to 1 μM; read-out: concentration required to cause 50% inhibition (IC50) of the autophosphorylation of Rv2027194
T2 sequence (P9WGK1 380-573 limits assumed): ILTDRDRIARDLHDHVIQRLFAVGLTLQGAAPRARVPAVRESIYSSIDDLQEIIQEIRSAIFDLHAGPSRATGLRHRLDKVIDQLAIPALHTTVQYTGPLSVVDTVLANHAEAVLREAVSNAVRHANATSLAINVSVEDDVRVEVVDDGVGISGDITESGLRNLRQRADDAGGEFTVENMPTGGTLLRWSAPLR

DevS201 [3] = target: T1, DevS201; assay: Coomassie-stained SDS-PAGE check for aggregation of sensor kinase DevS201; design: species or system M. tuberculosis; details: coomassie-stained SDS-PAGE of autophosphorylation reaction
Rv2027194 [4] = target: T2, Rv2027194; assay: Coomassie-stained SDS-PAGE check for aggregation of sensor kinase Rv2027194; design: species or system M. tuberculosis; details: coomassie-stained SDS-PAGE of autophosphorylation reaction
DevS201 [5] = target: T1, DevS201; assay: SDS-PAGE/autoradiography assay of DevS201 autophosphorylation in presence of candidate compounds; type: biochemical, M. tuberculosis; details: 1 mM compound, 12 μM DevS201, SDS-PAGE format
Experimental: FIG. 16. Inhibition of autophosphorylation of sensor kinase DevS201 by various candidate compounds. Autoradiogram of SDS-PAGE of autophosphorylation reaction products. Lane 1, levamisole HCl; lane 2, folic acid; lane 3, gly-gly-glycine; lane 4, EGTA; lane 5, bromo-phenol blue; lane 6, HABA; lane 7, ethidium bromide; lane 8, anti-DevS antibody (1 μl); lane 9, no compound. Briefly, all the mentioned compounds (1 mM final concentration) were added to 12 μM of DevS201 in reaction buffer without ATP and incubated at RT for 30 minutes after which the reaction was initiated by addition of [γ^32P]ATP and cold ATP. The reaction contents were then incubated at 25° C. for 60 minutes and were subsequently analyzed on gel as mentioned earlier.
Utilizing this knowledge a few compounds were tested for their inhibitory activity on the autophosphorylation potential of DevS sensor kinase. These included levamisole, folic acid, glycyl glycyl glycine, ethidium bromide, bromo phenol blue, 2-4-hydroxyphenylazo benzoic acid (HABA), 2-mercapto benzimidazole etc. […]
To elaborate, 12 μM of DevS201 was incubated with the aforementioned compounds in the phosphorylation reaction buffer (50 mM Tris.HCl, pH 8.0, 50 mM KCl and 25 mM MgCl2) for 30 minutes at room temperature. […] Subsequently, the reactions were terminated and analyzed on SDS-PAGE as mentioned previously.

tubercle bacilli = details: replicating, static and multidrug-resistant bacilli; cited from earlier work

Structure (SMILES)	IC50 (DevS201 [1])	IC50 (Rv2027194 [2])	aggregation of sensor kinase DevS201 in presence of compound (DevS201 [3])	aggregation of sensor kinase Rv2027194 in presence of compound (Rv2027194 [4])	inhibition of the autophosphorylation of DevS201 (autoradiogram) (DevS201 [5])	inhibition at 2500 µM (DevS201 [1]; in the presence of 2.5 mM, read-out: inhibition of DevS) [%]	activity against tubercle bacilli (tubercle bacilli)
Sc1nc2ccccc2[nH]1 [2-MBI, 2-mercapto benzimidazole]	400 to 600 µM and 300 to 800 µM	400 to 600 µM and 300 to 800 µM	absence of aggregate	absence of aggregate			
O=S1(=O)OC(c2cc(Br)c(O)c(Br)c2)(c2cc(Br)c(O)c(Br)c2)c2ccccc21 [BPB, 3′,3″,5′,5″-Tetrabromophenol tetrabromosulfonapthalene]	1500 to 1700 µM	1500 to 1700 µM	no aggregation; also recorded: did not cause aggregation	no aggregation; also recorded: did not cause aggregation	visible inhibition		
CC[n+]1c(-c2ccccc2)c2cc(N)ccc2c2ccc(N)cc21.[Br-] [EtBr, Phenanthridinium, 3,8-diamino-5-ethyl-6-phenyl-, bromide]	> 2500 µM	600 to 700 µM and 500 to 1000 µM	no aggregation; also recorded: did not cause aggregation	no aggregation; also recorded: did not cause aggregation	visible inhibition	35	
O=[N+]([O-])c1cn2c(n1)OC[C@@H](OCc1ccc(OC(F)(F)F)cc1)C2 [PA-824]							activity against both replicating and static tubercle bacilli as well as multidrug-resistant bacilli
